Molecules are shown by their SMILES.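 Results reflect a 48-hour exposure of cells in 96-well plates to compound at five concentrations. GI50 marks 50% less growth. TGI: total growth inhibition.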

Among the test systems are CCRF-CEM leukemia; COLO 205 colon; SR leukemia; SK-MEL-5 melanoma; SN12C renal; SW-620 colon; KM12 colon; SK-OV-3 ovarian; LOX IMVI melanoma; NCI-H23 lung.
Holding throughout (experiment): inhibition of tumour cell growth, NCI panel, 48 h

For the compound `CC1=C(C(=O)Nc2ccc(Cl)c(Cl)c2)C(c2ccccc2O)NC(=O)N1` (configuration not stated), the GI50 was over 50 µM in the assay on CCRF-CEM leukemia; 28.3 µM with COLO 205 colon; 39.9 µM in the assay with SR leukemia; 22.5 µM with SK-MEL-5 melanoma; 34.6 µM with SN12C renal; over 50 µM with SW-620 colon. Also, the GI50 with KM12 colon is 16.9 µM; in the assay with SK-OV-3 ovarian, over 50 µM; in the assay on LOX IMVI melanoma, 33.4 µM. The TGI in the assay with CCRF-CEM leukemia, in the assay with COLO 205 colon, with SR leukemia, in the assay on SK-MEL-5 melanoma, in the assay on SN12C renal and in the assay on SW-620 colon was over 50 µM in each case. Also, the TGI in the assay with KM12 colon, with SK-OV-3 ovarian and in the assay with LOX IMVI melanoma was over 50 µM throughout.
With `CNC(=O)CN(CC(N)=O)C(N)=O`, the TGI with CCRF-CEM leukemia, in the assay on COLO 205 colon, in the assay with SR leukemia, in the assay with SK-MEL-5 melanoma, in the assay with SW-620 colon and with KM12 colon was over 100 µM each time. Besides, the TGI with SK-OV-3 ovarian, in the assay with NCI-H23 lung and in the assay with LOX IMVI melanoma was over 100 µM each time.
For `Cc1ccc(NC(=O)CC(=O)N2N=C(N(CCC#N)c3cccc(C)c3)CC2c2ccccc2)cc1` (configuration not stated), the TGI in the assay on CCRF-CEM leukemia, in the assay with COLO 205 colon, with SR leukemia, with SK-MEL-5 melanoma, with SN12C renal and with SW-620 colon was over 100 µM each time. Moreover, the TGI in the assay with KM12 colon, in the assay on SK-OV-3 ovarian and in the assay with NCI-H23 lung was over 100 µM throughout.
Turning to `COc1cccc(C2NC(=S)NC(C)=C2C(=O)Nc2ccc(Cl)c(Cl)c2)c1` (configuration not stated), the GI50 with COLO 205 colon is 9.41 µM; in the assay with SR leukemia, 42.6 µM; in the assay on SK-MEL-5 melanoma, 8.43 µM; in the assay with SN12C renal it was 9.14 µM; in the assay with SW-620 colon, 22.3 µM; in the assay with KM12 colon, 10.1 µM. For the same compound, the GI50 with SK-OV-3 ovarian was 21.3 µM; in the assay on LOX IMVI melanoma, 7.93 µM. For the same compound, the TGI with COLO 205 colon was 30.5 µM; in the assay with SR leukemia it was over 50 µM; in the assay on SK-MEL-5 melanoma, 16.1 µM; in the assay with SN12C renal it was 17.1 µM; in the assay on SW-620 colon, over 50 µM; with KM12 colon it was 20.5 µM. For the same compound, the TGI is over 50 µM in the assay on SK-OV-3 ovarian and 15.1 µM in the assay with LOX IMVI melanoma.
Consider `COc1cc2c(c(OC)c1OC)-c1ccc(SC)c(=O)cc1[C@@H](NC(=O)c1ccc(Cl)cc1)CC2`, for which the TGI in the assay on CCRF-CEM leukemia is over 100 µM; with COLO 205 colon it was 0.0265 µM; in the assay on SR leukemia it was over 100 µM; in the assay on SK-MEL-5 melanoma, under 0.01 µM; with SN12C renal it was 12.7 µM; in the assay with SW-620 colon, 41.3 µM. Moreover, the TGI in the assay with LOX IMVI melanoma amounted to 14.1 µM.
As for `CCOP(=O)(Nc1ccc2oc(=O)c3ccccc3c2c1)OCC`, the TGI with CCRF-CEM leukemia, in the assay on COLO 205 colon, in the assay on SR leukemia, in the assay on SK-MEL-5 melanoma, with SN12C renal and with SW-620 colon was over 100 µM in each case. Besides, the TGI in the assay on NCI-H23 lung and in the assay with LOX IMVI melanoma was over 100 µM throughout.
As to `OCNCCNc1nc2ccccc2c2[nH]c3ccccc3c12`, the GI50 is 1.76 µM in the assay on COLO 205 colon; 0.902 µM in the assay with SR leukemia; 1.28 µM in the assay on SK-MEL-5 melanoma; 1.26 µM in the assay on SN12C renal; 0.366 µM with SW-620 colon; 1.54 µM in the assay with KM12 colon. Besides, the GI50 with NCI-H23 lung was 0.772 µM; in the assay with LOX IMVI melanoma, 0.441 µM. The TGI with COLO 205 colon is over 50 µM; with SR leukemia, over 50 µM; in the assay with SK-MEL-5 melanoma, 4.09 µM; in the assay with SN12C renal it was 3.66 µM; in the assay on SW-620 colon, 2.22 µM; in the assay on KM12 colon it was 7.37 µM. In addition, the TGI in the assay on NCI-H23 lung worked out at 2.69 µM; with LOX IMVI melanoma, 1.39 µM.
With `C[C@@H]1C[C@]2(C[C@@H](C)C3[C@@H](CC4(C)[C@@H]5CCC6C(C)(C)OC(=O)C=C[C@]67C[C@@]5(CC[C@]34C)OO7)O2)OC1=O` (some centres not stated), the TGI in the assay on COLO 205 colon, in the assay on SR leukemia, in the assay with SK-MEL-5 melanoma, with SN12C renal, in the assay on SW-620 colon and in the assay with SK-OV-3 ovarian was over 100 µM in each case. Besides, the TGI in the assay with NCI-H23 lung and in the assay on LOX IMVI melanoma was over 100 µM in each case.
For the compound `CC(=O)Oc1ccc2c(c1)CC[C@@H]1C2CC[C@]2(C)C(=O)NC(=O)CC12` (some centres not stated), the TGI in the assay with CCRF-CEM leukemia, with COLO 205 colon, with SR leukemia, with SK-MEL-5 melanoma, in the assay on SN12C renal and in the assay on SW-620 colon was over 100 µM in each case. Also, the TGI in the assay with KM12 colon, with SK-OV-3 ovarian and with NCI-H23 lung was over 100 µM throughout.
Consider `CC(=O)OC1CC2C(=O)C(=O)C1(C)C2(C)C` (configuration not stated), for which the TGI in the assay with CCRF-CEM leukemia, with COLO 205 colon, with SR leukemia, in the assay on SK-MEL-5 melanoma, in the assay with SN12C renal and in the assay on SW-620 colon was over 100 µM in each case. Moreover, the TGI in the assay with SK-OV-3 ovarian and in the assay on NCI-H23 lung was over 100 µM in each case.
Consider `CC1(C)CC[C@]2(C(N)=O)CC[C@]3(C)C(=CC[C@@H]4[C@@]5(C)C/C(=C/c6ccncc6)C(=O)C(C)(C)[C@@H]5CC[C@]43C)[C@@H]2C1`, for which the GI50 in the assay with CCRF-CEM leukemia is 2.13 µM; with SR leukemia, 2.18 µM; with SK-MEL-5 melanoma, 1.77 µM; with SN12C renal, 1.82 µM; with SW-620 colon it was 2.04 µM; in the assay with KM12 colon it was 1.79 µM. Besides, the GI50 in the assay on SK-OV-3 ovarian is 3.13 µM; in the assay with NCI-H23 lung, 2.89 µM. Further, the TGI amounted to 5.45 µM with CCRF-CEM leukemia; 6.5 µM in the assay on SR leukemia; 3.27 µM with SK-MEL-5 melanoma; 3.67 µM in the assay on SN12C renal; 4.62 µM in the assay with SW-620 colon; 3.41 µM with KM12 colon. For the same compound, the values for the TGI in the assay on SK-OV-3 ovarian and with NCI-H23 lung were 11.9 µM and 9.62 µM, respectively.
In the case of `CCN(CC)CCN(C(=O)C(C)(C)C)c1ccccc1N`, the TGI with CCRF-CEM leukemia, with SR leukemia, in the assay with SK-MEL-5 melanoma, in the assay on SN12C renal, in the assay with SW-620 colon and in the assay with KM12 colon was over 100 µM throughout. For the same compound, the TGI with SK-OV-3 ovarian and in the assay on NCI-H23 lung was over 100 µM throughout.
